Drawing on patent US9493461B2, “Tetracyclic heterocycle compounds and methods of use thereof for the treatment of hepatitis C” (priority 2013, dated 2016), this text covers IC50 for 24 molecules.

The subject of one assay is HCV replicon genotype 1b. Kind of assay: HCV replicon assay, genotype 1b (cell ELISA for replicon-encoded NS3/4A). The class given is cell-based, hepatitis C virus (HCV). The note with it: Hepatitis C virus, 96 h, read-out: 1b IC50 (nM), genotype 1b replicon cells, 96 hours incubation, NS3/4A ELISA readout, % of DMSO control. As for the experimental part:
The HCV NS5B inhibitory activity of the present compounds may be tested using assays known in the art. The HCV NS5B polymerase inhibitors described herein have activities in a genotype 1b replicon assay as described in the Examples. The assay is performed by incubating a replicon harboring cell-line in the presence of inhibitor for a set period of time and measuring the effect of the inhibitor on HCV replicon replication either directly by quantifying replicon RNA level, or indirectly by measuring enzymatic activity of a co-encoded reporter enzyme such as luciferase or β-lactamase. By performing a series of such measurements at different inhibitor concentrations, the effective inhibitory concentration of the inhibitor (EC50 or EC90) is determined See Jan M. Vrolijk et al., A replicons-based bioassay for the measurement of interferons in patients with chronic hepatitis C, 110 J. VIROLOGICAL METHODS 201 (2003). Such assays may also be run in an automated format for high through-put screening. See Paul Zuck et al., A cell-based β-lactamase reporter gene assay for the identification of inhibitors of hepatitis C virus replication, 334 ANALYTICAL BIOCHEMISTRY 344 (2004).
(§1) Measurement of inhibition by compounds was performed using the HCV replicon system. Several different replicons encoding different HCV genotypes or mutations were used. In addition, potency measurements were made using different formats of the replicon assay, including different ways of measurements and different plating formats. See Jan M. Vrolijk et al., A replicons-based bioassay for the measurement of interferons in patients with chronic hepatitis C, 110 J. VIROLOGICAL METHODS 201 (2003); Steven S. Carroll et al., Inhibition of Hepatitis C Virus RNA Replication by 2′-Modified Nucleoside Analogs, 278(14) J. BIOLOGICAL CHEMISTRY 11979 (2003). However, the underlying principles are common to all of these determinations, and are outlined below.
(§2) Stable neomycin phosphotransferase encoding replicons-harboring cell lines were used, so all cell lines were maintained under G418 selection prior to the assay. Potency was determined using a cell ELISA assay with an antibody to the replicons encoded NS3/4a protease. See Caterina Trozzi et al., In Vitro Selection and Characterization of Hepatitis C Virus Serine Protease Variants Resistant to an Active-Site Peptide Inhibitor, 77(6) J. Virol. 3669 (2003). To initiate an assay, replicon cells were plated in the presence of a dilution series of test compound in the absence of G418. Typically, the assays were performed in a 96-well plate formate for manual operation, or a 384-well plate format for automated assay. Replicon cells and compound were incubated for 96 hours. At the end of the assay, cells were washed free of media and compound, and the cells were then lysed. RNA was quantified indirectly through detection of replicon-encoded NS3/4A protein levels, through an ELISA-based assay with an antibody specific for NS3/4A. IC50 determinations were calculated as a percentage of a DMSO control by fitting the data to a four-parameter fit function and the data obtained is provided in the table below.
(§3) Data for selected compounds of the present invention was obtained for genotypes 1a and 1b using this method and is provided in the table below: […]

A further assay deals with HCV replicon genotype 1a. Briefly: HCV replicon assay, genotype 1a (cell ELISA for replicon-encoded NS3/4A). The class given is cell-based, hepatitis C virus (HCV). The note with it: Hepatitis C virus, 96 h, read-out: 1a IC50 (nM), genotype 1a replicon cells, 96 hours incubation, NS3/4A ELISA readout, % of DMSO control. As for the experimental part: as §1, with “V[…]” for “VIROLOGICAL METHODS”
as §2, §3

On to `CNC(=O)c1c(-c2ccc(F)cc2)oc2cc(N(C)S(C)(=O)=O)c(-c3ccc4c(n3)-c3cc5c(F)cccc5n3C(CCO)N4)cc12` (stereo not drawn) [Example 65, 5-(11-fluoro-6-(2-hydroxyethyl)-5,6-dihydropyrido[3′,2′:4,5]pyrimido[1,6-a]indol-2-yl)-2-(4-fluorophenyl)-N-methyl-6-(N-methylmethylsulfonamido)benzofuran-3-carboxamide], for which the IC50 in the assay with HCV replicon genotype 1b amounted to 2.42 nM; with HCV replicon genotype 1a, 2.52 nM.
For `CNC(=O)c1c(-c2ccc(F)cc2)oc2cc(N(C)S(C)(=O)=O)c(-c3ccc4nc(CN5CC[C@@H](O)C5)n5c6cccc(F)c6cc5c4n3)cc12` [Example 87] the same measures were 1.26 nM and 1.28 nM.
The matching figures for `CNC(=O)c1c(-c2ccc(F)cc2F)oc2cc(N(C)S(C)(=O)=O)c(-c3ccc4nc(CN5CC(C)(O)C5)n5c6cccc(F)c6cc5c4n3)cc12` [Example 142]: 2.85 nM and 3.05 nM.
The matching figures for `CNC(=O)c1c(C2CC2)oc2cc(N(C)S(C)(=O)=O)c(-c3ccc4ncn5c6cccc(F)c6cc5c4n3)cc12` [Example 8]: 5.82 nM and 5.71 nM.
Consider `CNC(=O)c1c(-c2ccc(F)cc2)oc2cc(N(C)S(C)(=O)=O)c(-c3cnc4c(c3)-c3cc5c(F)cccc5n3CN4)cc12` [Example 57], for which the IC50 in the assay with HCV replicon genotype 1b was 3.11 nM; in the assay on HCV replicon genotype 1a it was 2.66 nM.
Take `CNC(=O)c1c(-c2ccc(F)cc2F)oc2cc(N(C)S(C)(=O)=O)c(-c3ccc4nc(CC5CC6(CNC(=O)C6)C5)n5c6cccc(F)c6cc5c4n3)cc12` (stereo not drawn) [Example 137]: the IC50 in the assay on HCV replicon genotype 1b came out at 5.04 nM; in the assay on HCV replicon genotype 1a, 6.67 nM.
For `CNC(=O)c1c(-c2ccc(F)cc2)oc2cc(N(C)S(C)(=O)=O)c(-c3cc4c(cn3)nc(CN3CC(C)(C#N)C3)n3c5cccc(F)c5cc43)cc12` [Example 119] the same measures were 3.59 nM and 1.74 nM.
The matching figures for `CNC(=O)c1c(-c2ccc(F)cc2)oc2cc(N(C)S(C)(=O)=O)c(-c3ccc4nc(CN5CCN6C(=O)OCC6C5)n5c6cccc(F)c6cc5c4n3)cc12` (stereo not drawn) [Example 98]: 4.16 nM and 4.79 nM.
On to `CNC(=O)c1c(-c2ccc(F)cc2)oc2cc(N(C)S(C)(=O)=O)c(-c3ccc4nc(C(C)N5CC(F)C5)n5c6cccc(F)c6cc5c4n3)cc12` (single isomer, unassigned) [Example 39, (R or S)-5-(11-fluoro-6-(1-(3-fluoroazetidin-1-yl)ethyl)pyrido[3′,2′:4,5]pyrimido[1,6-a]indol-2-yl)-2-(4-fluorophenyl)-N-methyl-6-(N-methylmethylsulfonamido)benzofuran-3-carboxamide], for which the IC50 in the assay on HCV replicon genotype 1b came out at 6.08 nM; with HCV replicon genotype 1a, 6.37 nM.
Regarding `CNC(=O)c1c(-c2ccc(F)cc2)oc2cc(N(C)S(C)(=O)=O)c(-c3ccc4nc(CS(C)(=O)=O)n5c6cccc(F)c6cc5c4n3)cc12` [Example 23, 5-(11-fluoro-6-((methylsulfonyl)methyl)pyrido[3′,2′:4,5]pyrimido[1,6-a]indol-2-yl)-2-(4-fluorophenyl)-N-methyl-6-(N-methylmethylsulfonamido)benzofuran-3-carboxamide], the IC50 in the assay with HCV replicon genotype 1b is 2.98 nM; in the assay with HCV replicon genotype 1a, 1.85 nM.
Consider `CNC(=O)c1c(-c2ccc(F)cc2F)oc2cc(N(C)S(C)(=O)=O)c(-c3ccc4nc(CN5CC(C)(OC)C5)n5c6cccc(F)c6cc5c4n3)cc12` [Example 138], for which the IC50 with HCV replicon genotype 1b amounted to 4.59 nM; with HCV replicon genotype 1a it was 4.33 nM.
As to `CNC(=O)c1c(-c2ccc(F)cc2)oc2cc(N(C)S(C)(=O)=O)c(-c3ccc4c(n3)-c3cc5c(F)cccc5n3CN4)cc12` [Example 56, 5-(11-fluoro-5,6-dihydropyrido[3′,2′:4,5]pyrimido[1,6-a]indol-2-yl)-2-(4-fluorophenyl)-N-methyl-6-(N-methylmethylsulfonamido)benzofuran-3-carboxamide], the IC50 in the assay with HCV replicon genotype 1b was 5.32 nM; in the assay with HCV replicon genotype 1a it was 5.26 nM.
With `CNC(=O)c1c(-c2ccc(C)nc2)oc2cc(N(C)S(C)(=O)=O)c(-c3cc4c(cn3)ncn3c5cccc(F)c5cc43)cc12` [Example 19], the results for the IC50 in the assay with HCV replicon genotype 1b and in the assay with HCV replicon genotype 1a were 5.64 nM and 2.79 nM, respectively.
The matching figures for `CNC(=O)c1c(-c2ccc(F)cc2F)oc2cc(N(C)S(C)(=O)=O)c(-c3ccc4nc(CN5CCN(C(C)=O)CC5)n5c6cccc(F)c6cc5c4n3)cc12` [Example 148]: 3.17 nM and 2.52 nM.
For `CNC(=O)c1c(-c2ccc(F)nc2)oc2cc(N(C)S(C)(=O)=O)c(-c3ccc4nc(CN5CC(F)C5)n5c6cccc(F)c6cc5c4n3)cc12` [Example 31] the same measures were 4.69 nM and 2.95 nM.
As for `CNC(=O)c1c(-c2ccc(F)cc2)oc2cc(N(C)S(C)(=O)=O)c(-c3ccc4nc(CN5CCN(C)CC5)n5c6cccc(F)c6cc5c4n3)cc12` [Example 108], the IC50 was determined as 8.48 nM in the assay with HCV replicon genotype 1b and 6.08 nM in the assay with HCV replicon genotype 1a.
With `CNC(=O)c1c(-c2ccc(F)cc2)oc2cc(N(C)S(C)(=O)=O)c(-c3ccc4[nH]c(=O)n5c6ccc(F)cc6cc5c4n3)cc12` [Example 21, 5-(10-fluoro-6-oxo-5,6-dihydropyrido[3′,2′:4,5]pyrimido[1,6-a]indol-2-yl)-2-(4-fluorophenyl)-N-methyl-6-(N-methylmethylsulfonamido)benzofuran-3-carboxamide], the IC50 with HCV replicon genotype 1b was found to be 8.74 nM; with HCV replicon genotype 1a, 7.61 nM.
The matching figures for `CNC(=O)c1c(C2CC2)oc2cc(N(C)S(C)(=O)=O)c(-c3ccc4nc(CN5CC(F)C5)n5c6cccc(F)c6cc5c4n3)cc12` [Example 151]: 3.43 nM and 2.66 nM.
On to `CNC(=O)c1c(-c2ccc(F)cc2)oc2cc(N(C)S(C)(=O)=O)c(-c3ccc4nc(CN5CC(F)C5)n5c6cccc(C#N)c6cc5c4n3)cc12` [Example 120], for which the IC50 with HCV replicon genotype 1b came to 2.01 nM; with HCV replicon genotype 1a, 1.67 nM.
The matching figures for `CNC(=O)c1c(-c2ccc(F)cc2)oc2cc(N(C)S(C)(=O)=O)c(-c3cnc4ncn5c6cccc(F)c6cc5c4c3)cc12` [Example 59, 2-(4-fluorophenyl)-5-(11-fluoropyrido[2′,3′:4,5]pyrimido[1,6-a]indol-2-yl)-N-methyl-6-(N-methylmethylsulfonamido)benzofuran-3-carboxamide]: 2.16 nM and 2 nM.
For `CNC(=O)c1c(-c2ccc(F)cc2)oc2cc(N(C)S(C)(=O)=O)c(-c3ccc4ncn5c6ccccc6cc5c4c3)cc12` [Example 41, 2-(4-fluorophenyl)-5-(indolo[1,2-c]quinazolin-2-yl)-N-methyl-6-(N-methylmethylsulfonamido)benzofuran-3-carboxamide] the same measures were 2.57 nM and 2.09 nM.
For `CNC(=O)c1c(-c2ccc(F)cc2)oc2cc(N(C)S(C)(=O)=O)c(-c3ccc4nc(CN)n5c6cccc(F)c6cc5c4n3)cc12` [Example 111], the IC50 came out at 7.79 nM with HCV replicon genotype 1b and 4.15 nM with HCV replicon genotype 1a.
For `CNC(=O)c1c(-n2ccc(C)cc2=O)oc2cc(N(C)S(C)(=O)=O)c(-c3ccc4ncn5c6cccc(F)c6cc5c4n3)cc12` [Example 12] the same measures were 2.36 nM and 2.11 nM.
For `CNC(=O)c1c(-c2ccc(F)cc2)oc2cc(N(C)S(C)(=O)=O)c(-c3ccc4nc(CN5CCC5(C)C)n5c6cccc(F)c6cc5c4n3)cc12` [Example 99] the same measures were 5.76 nM and 3.32 nM.
